# Entries after “also recorded” stand apart in the source; their conditions may differ. Where two headings read alike, the source gives them in different places.
# Legend:
# [1] = Solubility for the XO assay; type: physicochemical; settings: in water or DMSO
# xanthine oxidase (XO) [2] = test: HPTLC xanthine oxidase bioautography (NBT/formazan); type: biochemical; settings: for XO inhibitory activity on HPTLC bioautography plate (spot intensity): white/yellow spots on purple background, 1 mg/mL, 20 µL applied
# Method: As the spectrophotometer analysis monitors the production of uric acid from xanthine, the HPTLC method measures the production of the superoxide radical anion formed during the regeneration of an enzyme. In contact with superoxide radical anion, the Nitro Blue Tetrazolium (NBT) is transformed in formazan (purple), inducing a change in the color of the reaction mixture. The inhibitors will appear as white/yellow spots under a purple background.
# The samples were prepared by dissolving 1 mg of each fraction in 1 mL of methanol, and 20 µL was applied on 8 mm bands, 8 mm from the lower edge of the plate. The mobile phase was a mixture of ethyl acetate, dichloromethane, formic acid, acetic acid, and water (100:25:10:10:11). […] After development, plates were dried under a stream of cool air for 10 min.
# The XO inhibition assay was conducted using the method developed by Ramallo [32], with slight modifications. After migration, the plates were dipped into a solution of PBS 120 mM containing xanthine oxidase (0.1 U/mL), EDTA (1 mM), and NBT (1 mM) in a sterilizer, at 37 °C in the dark for 30 min. The plates were then dipped into a solution of PBS 120 mM containing xanthine (1.5 mM) in a sterilizer, at 37 °C for 30 min in the dark.
# xanthine oxidase (XO) [3] = molecular target: xanthine oxidase (XO) (Bos taurus, UniProt P80457); test: Xanthine oxidase inhibitory activity by UV spectroscopy (uric acid formation at 293 nm); type: biochemical
# Method: Inhibition of XO was conducted according to the procedure described by Sowndhararajan et al., with slight modifications. […] Prior to the addition of XO solution in the mixture, all the components were incubated at 25 °C in the dark for 5 min. […] The enzymatic activity assay without extract was defined as maximum relative activity, and the percentage of inhibition was calculated according to the method of Yan et al. IC50 values were determined using linear regression and are expressed in µg/mL of plant extract ± standard deviation. All measurements were performed in triplicate (n = 3).
# xanthine oxidase (XO) [4] = molecular target: xanthine oxidase (XO); design: method as in doi:10.5539/jfr.v1n3p257, doi:10.1016/j.bjp.2015.08.013; settings: described to possess no inhibitory activity; read-out: IC50, XO inhibition (described); cited from earlier work
# xanthine oxidase (XO) [5] = test: Measurement of XO interaction by HPLC (crude extract incubated with and without enzyme); type: binding; settings: crude extract 1 mg/mL, XO 0.1 U/mL, 1 h; for Interaction with XO (HPLC subtraction, negative peaks): HPLC-UV 254 nm; for XO binding (%): estimated from difference of peak area with and without XO
# Method: The identification of bioactive compounds which form in a complex mixture by rapid screening, without the requirement of purification, is a challenging approach. […] Based on the method described by Wang, we incubated the enzyme with the crude extract and carried out HPLC analyses on the filtrate after centrifugation.
# The measurement of XO interaction was conducted according to Zhang’s procedure, with some modifications. The assay mixture contained 10 mL of crude extract at 1 mg/mL in water, and 200 µL of xanthine oxidase (final concentration of 0.1 U/mL), or 200 µL of water. Prior to the HPLC analysis, the solution was mixed for one hour at room temperature in the dark. After one hour, the mixture was centrifuged at 4500× g […] and supernatant was filtered through a 0.45 µm PTFE filter. […] Potential inhibitors were identified after subtraction of the chromatogram obtained from the assay with and without XO (negative peaks).
# [6] = Stability in solution for the XO assay; type: physicochemical
# [7] = UV spectroscopy, xanthine 56 µM, XO 0.01 U/mL, 25 °C, n = 3, read-out: IC50 (µg/mL), XO inhibition (converted)
# [8] = UV spectroscopy, xanthine 56 µM, XO 0.01 U/mL, 25 °C, n = 3, read-out: IC50 (µM), XO inhibition
# Chain of xanthine oxidase (XO) (Bos taurus, UniProt P80457) (P80457 2-1332 limits assumed): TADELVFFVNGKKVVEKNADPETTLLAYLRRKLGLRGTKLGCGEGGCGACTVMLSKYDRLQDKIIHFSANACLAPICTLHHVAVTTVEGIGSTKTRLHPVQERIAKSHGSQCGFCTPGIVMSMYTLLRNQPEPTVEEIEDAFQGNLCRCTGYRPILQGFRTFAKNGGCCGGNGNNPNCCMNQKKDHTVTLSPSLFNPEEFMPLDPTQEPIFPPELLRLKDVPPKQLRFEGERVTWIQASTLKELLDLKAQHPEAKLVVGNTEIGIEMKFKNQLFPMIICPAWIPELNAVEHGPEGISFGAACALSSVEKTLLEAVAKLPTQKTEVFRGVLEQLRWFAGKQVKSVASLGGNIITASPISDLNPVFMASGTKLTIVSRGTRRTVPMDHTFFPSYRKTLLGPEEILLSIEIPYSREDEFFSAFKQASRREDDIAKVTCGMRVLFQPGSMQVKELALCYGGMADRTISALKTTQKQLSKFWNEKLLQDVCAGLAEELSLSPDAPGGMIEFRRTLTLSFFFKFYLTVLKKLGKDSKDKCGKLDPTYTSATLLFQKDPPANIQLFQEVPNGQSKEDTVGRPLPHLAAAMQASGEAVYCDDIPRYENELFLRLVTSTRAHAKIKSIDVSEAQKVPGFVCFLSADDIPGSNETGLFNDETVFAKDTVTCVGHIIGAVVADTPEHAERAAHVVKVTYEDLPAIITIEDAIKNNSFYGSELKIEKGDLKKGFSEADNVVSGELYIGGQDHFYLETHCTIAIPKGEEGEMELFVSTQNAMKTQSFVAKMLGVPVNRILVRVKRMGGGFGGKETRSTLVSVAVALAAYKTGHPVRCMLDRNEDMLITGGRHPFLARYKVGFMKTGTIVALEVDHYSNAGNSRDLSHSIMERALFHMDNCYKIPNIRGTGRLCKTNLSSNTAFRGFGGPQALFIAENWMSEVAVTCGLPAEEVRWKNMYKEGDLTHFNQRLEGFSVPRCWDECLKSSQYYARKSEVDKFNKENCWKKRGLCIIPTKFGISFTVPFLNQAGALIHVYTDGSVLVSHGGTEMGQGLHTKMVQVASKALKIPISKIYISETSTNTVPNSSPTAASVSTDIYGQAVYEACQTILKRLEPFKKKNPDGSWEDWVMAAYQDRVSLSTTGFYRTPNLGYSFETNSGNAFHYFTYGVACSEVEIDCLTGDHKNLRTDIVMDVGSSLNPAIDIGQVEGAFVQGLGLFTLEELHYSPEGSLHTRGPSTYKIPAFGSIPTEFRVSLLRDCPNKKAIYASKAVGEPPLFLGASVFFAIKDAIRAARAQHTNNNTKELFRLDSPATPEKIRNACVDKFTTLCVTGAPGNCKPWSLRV
SMILES,XO inhibitory activity on HPTLC bioautography plate (spot intensity) (xanthine oxidase (XO) [2]),IC50 (xanthine oxidase (XO) [3]; [7]),"Interaction with XO (HPLC subtraction, negative peaks) (xanthine oxidase (XO) [5])",IC50 (xanthine oxidase (XO) [3]; [8]),XO binding (%) (xanthine oxidase (XO) [5]),also measured
O=c1oc2c(O)c(O)cc3c(=O)oc4c(O)c(O)cc1c4c23 [Ellagic acid],weak activity,–,–,–,–,Solubility [1]: not soluble; Stability on the HPTLC plate (xanthine oxidase (XO) [2]): decompose on the plate
O=C(O)c1cc(O)c(O)c(O)c1 [Gallic acid],–,> 1760 µM,–,–,–,IC50 (xanthine oxidase (XO) [3]): > 50 µM; IC50 (xanthine oxidase (XO) [4]): > 100 µM
O=c1c(O[C@@H]2O[C@H](CO)[C@H](O)[C@H](O)[C@H]2O)c(-c2ccc(O)c(O)c2)oc2cc(O)cc(O)c12 [Hyperoside],weak interactions,> 215 µM,did not seem to interact,> 50 µM,–,–
O=c1c(O[C@@H]2O[C@H](CO)[C@@H](O)[C@H](O)[C@H]2O)c(-c2ccc(O)c(O)c2)oc2cc(O)cc(O)c12 [Isoquercitrin],weak interactions,> 215 µM,did not seem to interact,> 50 µM,–,–
O=c1c(O)c(-c2ccc(O[C@@H]3O[C@H](CO)[C@@H](O)[C@H](O)[C@H]3O)cc2)oc2cc(O)cc(O)c12 [Kaempferol-4′-O-glucoside],–,–,significant interactions,–,–,–
O=c1c(O)c(-c2ccc(O)cc2)oc2cc(O)cc(O)c12 [Kaempferol],quite strong inhibitors; also recorded: strong interactions,–,seem to interact,–,–,–
O=c1c(O)c(-c2ccc(O)c(O)c2)oc2cc(O)cc(O)c12 [Quercetin],quite strong inhibitors; also recorded: strong interactions,–,seem to interact,–,~50%,–
O=C(O[C@@H]1O[C@@H]2COC(=O)c3cc(Oc4c(C(=O)O[C@@H]5O[C@@H]6COC(=O)c7cc(O)c(O)c(O)c7-c7c(cc(O)c(O)c7O)C(=O)O[C@H]6[C@H](OC(=O)c6cc(O)c(O)c(O)c6)[C@H]5OC(=O)c5cc(O)c(O)c(O)c5)cc(O)c(O)c4O)c(O)c(O)c3-c3c(cc(O)c(O)c3O)C(=O)O[C@H]2[C@H](OC(=O)c2cc(O)c(O)c(O)c2)[C@H]1OC(=O)c1cc(O)c(O)c(O)c1)c1cc(O)c(O)c(O)c1 [Rugosin D],strong interactions,–,strongest interaction,35.7 ± 2.1 µM,around 60%,"IC50 (µg/mL), XO inhibition (xanthine oxidase (XO) [3]; UV spectroscopy, xanthine 56 µM, XO 0.01 U/mL, 25 °C, n = 3): 67.0 ± 1.1 µg/mL"
O=C(O)c1ccccc1O [Salicylic acid],–,> 2170 µM,–,> 50 µM,–,IC50 (xanthine oxidase (XO) [4]): > 100 µM
O=c1c(O)c(-c2ccc(O[C@@H]3O[C@H](CO)[C@@H](O)[C@H](O)[C@H]3O)c(O)c2)oc2cc(O)cc(O)c12 [Spiraeoside],quite strong inhibitors; also recorded: strong interactions,0.668 µM,significant interactions,0.66 ± 0.02 µM,around 30%,XO inhibitory activity relative to allopurinol (xanthine oxidase (XO) [3]; activity higher than allopurinol): around 25 times
O=C(OC1O[C@@H]2COC(=O)c3cc(O)c(O)c(O)c3-c3c(cc(O)c(O)c3O)C(=O)O[C@H]2[C@H](OC(=O)c2cc(O)c(O)c(O)c2)[C@H]1OC(=O)c1cc(O)c(O)c(O)c1)c1cc(O)c(O)c(O)c1 (stereo partly drawn) [Tellimagrandin II],weak activity,–,strongest interaction,–,around 30%,Stability in solution [6]: decomposed in the solution; Stability on the HPTLC plate (xanthine oxidase (XO) [2]): decompose on the plate
